The source of these data is paper PMC3856889 (Molecular cancer therapeutics, 2013).

For one data set, the system named is H358. As to the kind of experiment: MTT cytotoxicity assay, H358 NSCLC cells. The format is cell-based, human. The conditions noted are these: read-out: IC50 (µM) H358, 96-h incubation. For orientation: Formazan colour is commonly taken as a measure of viable cells.
The next data set concerns H226. The experiment in a line: MTT cytotoxicity assay, H226 NSCLC cells. The conditions noted are these: read-out: IC50 (µM) H226, 96-h incubation. The format is cell-based, human.
The test system of a further data set is C57 BL/6 mice. The experiment in a line: Maximum tolerable dose, i.p. injection. The format is in vivo, mouse. The settings on record: dose level causing no deaths, chloride salt.
Data set [1] deals with supercoiled plasmid pUC18 DNA. The conditions noted are these: cited from earlier work.
The conditions of data set [2]: cited from earlier work; for potential of tatpp-based reductive processes: vs. NHE at pH 7.0.
A further data set has as its system mice. The settings on record: cited from earlier work.
Data set [3] concerns acetyl cholinesterase (AChE). The conditions noted are these: in vitro and in vivo; cited from earlier work.
For data set [4] the following is noted: radiolabeled complex, in vivo; cited from earlier work.
A further data set deals with H358 cells. As to the kind of experiment: Non-hypoxic/hypoxic cytotoxicity, cell count with Trypan blue. The format is cell-based, human. The settings on record: hypoxic 1 % O2 relative to normoxic, 24 h, Fig. 2A.
The nature of data set [5]: Water solubility of the salts. The conditions noted are these: chloride salts.
The test system of data set [6] is HUVEC. As to the kind of experiment: Cytotoxicity towards normal HUVEC cells. It is filed as cell-based, human.
Data set [7] relates to HUVSMC. The experiment in a line: Cytotoxicity towards normal HUVSMC cells. The format is cell-based, human. The conditions noted are these: read-out: IC50 for normal HUVSMC cells.
A further data set has as its system NCI-60 panel. As to the kind of experiment: NCI-60 cell line one-dose screen. The settings on record: single dose 10 µM. The format is cell-based.
Data set [8] concerns supercoiled plasmid pUC18 DNA. As to the kind of experiment: DNA cleavage assay. The format is biochemical.
Data set [9] concerns HUVEC. The experiment in a line: Apoptosis, caspase-cleavage and TUNEL, HUVEC. The format is cell-based, human. The settings on record: 10 µM.
In data set [10] the test system is HUVSMC. The experiment in a line: Apoptosis, HUVSMC. The format is cell-based, human. The conditions noted are these: similar treatment.
Data set [11] relates to pAKT, pEGFR, PI3K, pRb, CDK4, cyclinB1, bcl2, Bax in H358 cells. As to the kind of experiment: Western blot of apoptotic, proliferative and tumor suppressor proteins. The format is cell-based, human. The settings on record: H358, 10 µM, 24 h, Fig. 2D. (A western blot detects proteins with antibodies after separation by electrophoresis.)

Several values for one entry are separate records, joined by “and”; a condition that tells them apart may be missing. Equal values may be shown once.

As for `[Ru+2].c1cnc2c(c1)ccc1cccnc12.c1cnc2c(c1)ccc1cccnc12.c1cnc2c(c1)ccc1cccnc12` [1^2+, rac-[Ru(phen)3]^2+], the concentration for half-maximal inhibition (IC50) (as a rule, the concentration needed to halve the response being measured) with H358 was 90 µM and 86.7 µM; with H226 it was 90 µM and 92.8 µM. Besides, the “Maximum Tolerable Dose MTD (mg complex /kg mouse)” value in the data set with C57 BL/6 mice was determined as 6.6 mg complex /kg mouse. The “Maximum Tolerable Dose MTD µmol complex /kg mouse” value in the data set on C57 BL/6 mice was found to be 9.1 µmol complex /kg mouse. For the same molecule, the “DNA cleavage activity upon in situ reduction by glutathione” value in data set [1] is recorded as “nor do they exhibit any DNA cleavage activity”. The reduction potential required in data set [2] is no more than −0.70 V. Besides, the minimum lethal dose in the data set with mice (iodo salt, mice, i.p. injection) is 12 µmol/kg. For the same molecule, the “toxicity when administered orally” value in the data set with mice (oral) is listed as “non-toxic”. Further, the “inhibition of acetyl cholinesterase (AChE)” value in [3] is “competitive inhibitor”.

`[106Ru+2].c1cnc2c(c1)ccc1cccnc12.c1cnc2c(c1)ccc1cccnc12.c1cnc2c(c1)ccc1cccnc12` [[^106Ru(phen)3]^2+]: the “recovery in the urine” value in data set [4] is given as “nearly all the complex was recovered in the urine”.

In the case of `[Ru+2].c1ccc(-c2ccccn2)nc1.c1ccc(-c2ccccn2)nc1.c1ccc(-c2ccccn2)nc1` [rac-[Ru(bpy)3]^2+, reference compound], the values for the 50% inhibitory concentration (IC50) in the data set with H358 and in the data set on H226 were 209 ± 16 µM and 198 ± 15 µM, respectively.

Regarding `[Ru+2].c1cnc2c(c1)ccc1cccnc12.c1cnc2c(c1)ccc1cccnc12.c1cnc2c(c1)ccc1cccnc12` [Δ-1^2+, Δ-[Ru(phen)3]^2+], the values for the half-maximal inhibitory concentration (IC50) in the data set with H358 and with H226 were 64.8 ± 4.2 µM and 93.6 ± 6.3 µM, respectively.

Regarding `[Ru+2].c1cnc2c(c1)ccc1cccnc12.c1cnc2c(c1)ccc1cccnc12.c1cnc2c(c1)ccc1cccnc12` [Λ-1^2+, Λ-[Ru(phen)3]^2+], the IC50 in the data set on H358 is 61.4 ± 4.7 µM; in the data set on H226, 116 ± 6.9 µM.

In the case of [Ru(phen)2(dppz)]^2+, the “potentiation of cytotoxicity under hypoxic conditions” value in the data set with H358 cells was “neither of which showed significant potentiation”.

Regarding “cis-Pt(NH3)2Cl2 [cisplatin, reference compound]”, in the data set with H358 cells, the “potentiation of cytotoxicity under hypoxic conditions” value was “neither of which showed significant potentiation”. Moreover, the LD50 with mice (murine acute toxicity) was ~ 57 µmol/kg.

Turning to “mix-[(phen)2Ru(tatpp)Ru(phen)2]^4+ [4^4+]”, the IC50 in the data set on H358 stood at 15.2 ± 1.8 µM. For the same molecule, the IC50 in the data set with H226 worked out at 16.2 ± 1.9 µM. Also, in the data set on C57 BL/6 mice, the “Maximum Tolerable Dose MTD (mg complex /kg mouse)” value amounted to 66 mg complex /kg mouse and the “Maximum Tolerable Dose MTD µmol complex /kg mouse” value was determined as 43 µmol complex /kg mouse. Moreover, in [1], the “DNA cleavage activity upon in situ reduction by glutathione” value was “effective DNA cleaving agent”. Further, the “potential of tatpp-based reductive processes” value in data set [2] is greater than −0.25 V. In data set [5], the water solubility result was “water soluble”.

Regarding “mix-[(phen)2Ru(tpphz)Ru(phen)2]^4+ [2^4+]”, the IC50 in the data set with H358 stood at 41.8 ± 2.7 µM. The IC50 with H226 is 51.1 ± 3.4 µM. Besides, in the data set on C57 BL/6 mice, the “Maximum Tolerable Dose MTD (mg complex /kg mouse)” value is given as 3.3 mg complex /kg mouse and the “Maximum Tolerable Dose MTD µmol complex /kg mouse” value stood at 2.5 µmol complex /kg mouse. Moreover, in [1], the “DNA cleavage activity upon in situ reduction by glutathione” value was “nor do they exhibit any DNA cleavage activity”. In data set [2], the reduction potential required is no more than −0.70 V. Also, the water solubility entry in data set [5] is listed as “water soluble”.

Consider rac-[(phen)2Ru(tatpp)]^2+ [3^2+], for which, in the data set with H358, the 50% inhibitory concentration (IC50) was 13.2 ± 1.8 µM. In addition, the IC50 in the data set with H226 came out at 12.5 ± 1.9 µM. Besides, in the data set on C57 BL/6 mice, the “Maximum Tolerable Dose MTD (mg complex /kg mouse)” value is reported as 67 mg complex /kg mouse and the “Maximum Tolerable Dose MTD µmol complex /kg mouse” value came to 65 µmol complex /kg mouse. Also, the “potential of tatpp-based reductive processes” value in data set [2] is given as greater than −0.25 V. The water solubility entry in data set [5] is “water soluble”.

As to “ΔΔ-[(phen)2Ru(tatpp)Ru(phen)2]^4+ [ΔΔ-4^4+]”, the IC50 is 9.5 ± 1.2 µM in the data set with H358, 9.3 ± 0.9 µM in the data set with H226, roughly 100 µM in the data set on HUVEC [6] (read-out: IC50 for normal HUVEC cells) and roughly 100 µM in the data set on HUVSMC [7]. Besides, the “difference in cytotoxicity, malignant vs normal cells” value in the data set on HUVEC [6] (malignant cell lines vs HUVEC and HUVSMC) was roughly 10 fold. The “mean growth percentage, whole panel” value in the data set with NCI-60 panel turned out to be 80%. Besides, the “Maximum Tolerable Dose MTD (mg complex /kg mouse)” value with C57 BL/6 mice was 100 mg complex /kg mouse. For the same molecule, the “Maximum Tolerable Dose MTD µmol complex /kg mouse” value in the data set on C57 BL/6 mice worked out at 64 µmol complex /kg mouse. Besides, the “DNA cleavage, dependence on GSH” value in data set [8] (presence or absence of GSH, Fig. 3A) was “only show DNA cleavage when GSH is present”. Moreover, the “DNA cleavage when O2 is absent” value in [8] (with GSH, anaerobic vs aerobic) was “appreciably enhanced”. The “apoptosis in HUVEC” value in the data set on HUVEC [9] is recorded as “did not show apoptosis”. Besides, the “apoptosis in HUVSMC” value in the data set on HUVSMC [10] is “did not show apoptosis”. For the same molecule, the Bax level entry in data set [11] is listed as “significantly increased”. The “kinase signaling (pAKT, pEGFR, PI3K, pRb, CDK4, cyclinB1, bcl2)” value in [11] is “generalized decrease in kinase signaling”.

As for “ΔΛ-[(phen)2Ru(tatpp)Ru(phen)2]^4+ [ΔΛ-4^4+]”, the 50% inhibitory concentration (IC50) with H358 came out at 15.3 ± 1.5 µM; with H226 it was 18.6 ± 1.5 µM. Moreover, the “Maximum Tolerable Dose MTD (mg complex /kg mouse)” value with C57 BL/6 mice came to 66 mg complex /kg mouse. For the same molecule, in the data set with C57 BL/6 mice, the “Maximum Tolerable Dose MTD µmol complex /kg mouse” value was found to be 43 µmol complex /kg mouse.

Λ-[(phen)2Ru(tatpp)]^2+ [Λ-3^2+]: the concentration for half-maximal inhibition (IC50) with H358 stood at 13.8 ± 1.5 µM; with H226, 13 ± 2 µM.

On to “ΛΛ-[(phen)2Ru(tatpp)Ru(phen)2]^4+ [ΛΛ-4^4+]”, for which the half-maximal inhibitory concentration (IC50) in the data set on H358 amounted to 16.7 ± 1 µM. Also, in the data set on H226, the IC50 stood at 17.3 ± 1.5 µM. Besides, in the data set with C57 BL/6 mice, the “Maximum Tolerable Dose MTD (mg complex /kg mouse)” value is 66 mg complex /kg mouse and the “Maximum Tolerable Dose MTD µmol complex /kg mouse” value worked out at 43 µmol complex /kg mouse.
